Assay results: patent US12077503B2, “Substituted cyclic amides and their use as herbicides” (FMC CORPORATION, priority 2015, dated 2024)

Key:
Format in all cases: in vivo
[1] = test system: barnyardgrass (Echinochloa crus-galli); assay: Test G Pre-Emergence Protocol; details: Echinochloa crus-galli, pre-emergence, 312 h, evaluated after 13 days; for pest or weed control at 15.625 g/ha: 15.625 g ai/ha; for pest or weed control at 15.625 g/ha / pest or weed control at 250 g/ha: read-out: Barnyardgrass damage rating (100=total damage to plant; 0=no damage to plant); for pest or weed control at 62.5 g/ha: 62.5 g ai/ha, 100=total damage to plant, 0=no damage to plant, read-out: Barnyardgrass damage rating; for pest or weed control at 250 g/ha: 250 g ai/ha
Summary of the method: (§1)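 Visual injury (0–100) at day 13 after a single pre-emergence spray. Rates: 15.625, 62.5, 250 g/ha in acetone–water 50:50 with 0.5% Tween 20. Growth conditions: 24/16° C, 14 h light, 65% humidity.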

corn (Zea mays) [2] = assay: Test G Pre-Emergence Protocol; details: Zea mays, pre-emergence, 312 h, evaluated after 13 days; for plant injury at 15.625 g/ha: 15.625 g ai/ha; for plant injury at 15.625 g/ha / plant injury at 250 g/ha: read-out: Corn damage rating (100=total damage to plant; 0=no damage to plant); for plant injury at 62.5 g/ha: 62.5 g ai/ha, 100=total damage to plant, 0=no damage to plant, read-out: Corn damage rating; for plant injury at 250 g/ha: 250 g ai/ha
Summary of the method: as §1

[3] = test system: giant foxtail (Setaria faberi); assay: Test G Pre-Emergence Protocol; details: Setaria faberi, pre-emergence, 312 h, evaluated after 13 days; for pest or weed control at 15.625 g/ha: 15.625 g ai/ha; for pest or weed control at 15.625 g/ha / pest or weed control at 250 g/ha: read-out: Foxtail, Giant damage rating (100=total damage to plant; 0=no damage to plant); for pest or weed control at 62.5 g/ha: 62.5 g ai/ha, 100=total damage to plant, 0=no damage to plant, read-out: Foxtail, Giant damage rating; for pest or weed control at 250 g/ha: 250 g ai/ha
Summary of the method: as §1

[4] = test system: ivy-leaved morning glory (Ipomoea hederacea); assay: Test G Pre-Emergence Protocol; details: Ipomoea, pre-emergence, 312 h, evaluated after 13 days; for pest or weed control at 15.625 g/ha: 15.625 g ai/ha; for pest or weed control at 15.625 g/ha / pest or weed control at 250 g/ha: read-out: Morningglory, Ivy-leaved damage rating (100=total damage to plant; 0=no damage to plant); for pest or weed control at 62.5 g/ha: 62.5 g ai/ha, 100=total damage to plant, 0=no damage to plant, read-out: Morningglory, Ivy-leaved damage rating; for pest or weed control at 250 g/ha: 250 g ai/ha
Summary of the method: as §1

[5] = test system: redroot pigweed (Amaranthus retroflexus); assay: Test G Pre-Emergence Protocol; details: Amaranthus retroflexus, pre-emergence, 312 h, evaluated after 13 days; for pest or weed control at 15.625 g/ha: 15.625 g ai/ha; for pest or weed control at 15.625 g/ha / pest or weed control at 250 g/ha: read-out: Pigweed, Redroot damage rating (100=total damage to plant; 0=no damage to plant); for pest or weed control at 62.5 g/ha: 62.5 g ai/ha, 100=total damage to plant, 0=no damage to plant, read-out: Pigweed, Redroot damage rating; for pest or weed control at 250 g/ha: 250 g ai/ha
Summary of the method: as §1

[6] = test system: velvetleaf (Abutilon theophrasti); assay: Test G Pre-Emergence Protocol; details: Abutilon theophrasti, pre-emergence, 312 h, evaluated after 13 days; for pest or weed control at 15.625 g/ha: 15.625 g ai/ha; for pest or weed control at 15.625 g/ha / pest or weed control at 250 g/ha: read-out: Velvetleaf damage rating (100=total damage to plant; 0=no damage to plant); for pest or weed control at 62.5 g/ha: 62.5 g ai/ha, 100=total damage to plant, 0=no damage to plant, read-out: Velvetleaf damage rating; for pest or weed control at 250 g/ha: 250 g ai/ha
Summary of the method: as §1

[7] = test system: barnyardgrass (Echinochloa crus-galli); assay: Test G Post-Emergence Protocol; details: Echinochloa crus-galli, post-emergence, 312 h, read-out: Barnyardgrass damage rating; for pest or weed control at 15.625 g/ha: 15.625 g ai/ha, evaluated after 13 days (100=total damage to plant; 0=no damage to plant); for pest or weed control at 62.5 g/ha: 62.5 g ai/ha; for pest or weed control at 62.5 g/ha / pest or weed control at 250 g/ha: evaluated after 13 days, 100=total damage to plant, 0=no damage to plant; for pest or weed control at 250 g/ha: 250 g ai/ha
Summary of the method: (§2)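 Pot-grown seedlings, 8 days old, raised in a glasshouse at 24/16 °C day/night with 14 h light and 65% humidity, were sprayed post-emergence with test compound in acetone/water (50:50) plus 0.5% Tween 20 at 15.625, 62.5 or 250 g/ha. Damage was scored visually 13 days later on a 0–100 scale (100 = total damage).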

corn (Zea mays) [8] = assay: Test G Post-Emergence Protocol; details: Zea mays, post-emergence, 312 h, read-out: Corn damage rating; for plant injury at 15.625 g/ha: 15.625 g ai/ha, evaluated after 13 days (100=total damage to plant; 0=no damage to plant); for plant injury at 62.5 g/ha: 62.5 g ai/ha; for plant injury at 62.5 g/ha / plant injury at 250 g/ha: evaluated after 13 days, 100=total damage to plant, 0=no damage to plant; for plant injury at 250 g/ha: 250 g ai/ha
Summary of the method: as §2

[9] = test system: giant foxtail (Setaria faberi); assay: Test G Post-Emergence Protocol; details: Setaria faberi, post-emergence, 312 h, read-out: Foxtail, Giant damage rating; for pest or weed control at 15.625 g/ha: 15.625 g ai/ha, evaluated after 13 days (100=total damage to plant; 0=no damage to plant); for pest or weed control at 62.5 g/ha: 62.5 g ai/ha; for pest or weed control at 62.5 g/ha / pest or weed control at 250 g/ha: evaluated after 13 days, 100=total damage to plant, 0=no damage to plant; for pest or weed control at 250 g/ha: 250 g ai/ha
Summary of the method: as §2

[10] = test system: ivy-leaved morning glory (Ipomoea hederacea); assay: Test G Post-Emergence Protocol; details: Ipomoea, post-emergence, 312 h, read-out: Morningglory, Ivy-leaved damage rating; for pest or weed control at 15.625 g/ha: 15.625 g ai/ha, evaluated after 13 days (100=total damage to plant; 0=no damage to plant); for pest or weed control at 62.5 g/ha: 62.5 g ai/ha; for pest or weed control at 62.5 g/ha / pest or weed control at 250 g/ha: evaluated after 13 days, 100=total damage to plant, 0=no damage to plant; for pest or weed control at 250 g/ha: 250 g ai/ha
Summary of the method: as §2

[11] = test system: redroot pigweed (Amaranthus retroflexus); assay: Test G Post-Emergence Protocol; details: Amaranthus retroflexus, post-emergence, 312 h, read-out: Pigweed, Redroot damage rating; for pest or weed control at 15.625 g/ha: 15.625 g ai/ha, evaluated after 13 days (100=total damage to plant; 0=no damage to plant); for pest or weed control at 62.5 g/ha: 62.5 g ai/ha; for pest or weed control at 62.5 g/ha / pest or weed control at 250 g/ha: evaluated after 13 days, 100=total damage to plant, 0=no damage to plant; for pest or weed control at 250 g/ha: 250 g ai/ha
Summary of the method: as §2

[12] = test system: velvetleaf (Abutilon theophrasti); assay: Test G Post-Emergence Protocol; details: Abutilon theophrasti, post-emergence, 312 h, read-out: Velvetleaf damage rating; for pest or weed control at 15.625 g/ha: 15.625 g ai/ha, evaluated after 13 days (100=total damage to plant; 0=no damage to plant); for pest or weed control at 62.5 g/ha: 62.5 g ai/ha; for pest or weed control at 62.5 g/ha / pest or weed control at 250 g/ha: evaluated after 13 days, 100=total damage to plant, 0=no damage to plant; for pest or weed control at 250 g/ha: 250 g ai/ha
Summary of the method: as §2

| Structure (SMILES) | pest or weed control at 15.625 g/ha [1] [%] | pest or weed control at 62.5 g/ha [1] [%] | pest or weed control at 250 g/ha [1] [%] | plant injury at 15.625 g/ha (corn (Zea mays) [2]) [%] | plant injury at 62.5 g/ha (corn (Zea mays) [2]) [%] | plant injury at 250 g/ha (corn (Zea mays) [2]) [%] | pest or weed control at 15.625 g/ha [3] [%] | pest or weed control at 62.5 g/ha [3] [%] | pest or weed control at 250 g/ha [3] [%] | pest or weed control at 15.625 g/ha [4] [%] | pest or weed control at 62.5 g/ha [4] [%] | pest or weed control at 250 g/ha [4] [%] | pest or weed control at 15.625 g/ha [5] [%] | pest or weed control at 62.5 g/ha [5] [%] | pest or weed control at 250 g/ha [5] [%] | pest or weed control at 15.625 g/ha [6] [%] | pest or weed control at 62.5 g/ha [6] [%] | pest or weed control at 250 g/ha [6] [%] | pest or weed control at 15.625 g/ha [7] [%] | pest or weed control at 62.5 g/ha [7] [%] | other results |
| --- | --- | --- | --- | --- | --- | --- | --- | --- | --- | --- | --- | --- | --- | --- | --- | --- | --- | --- | --- | --- | --- |
| CN1C[C@H](c2cccc(C(F)(F)F)c2)[C@@H](C(=O)Nc2cc(O)ccc2F)C1=O (racemic) [Compound 1807] | 0 | 0 | 0 | 0 | 0 | 0 | 0 | 0 | 0 | 0 | 0 | 0 | 0 | 0 | 0 | 0 | 0 | 0 | 0 | 0 | pest or weed control at 250 g/ha [7]: 0%; plant injury at 15.625 g/ha (corn (Zea mays) [8]): 0%; plant injury at 62.5 g/ha (corn (Zea mays) [8]): 0%; plant injury at 250 g/ha (corn (Zea mays) [8]): 0%; pest or weed control at 15.625 g/ha [9]: 0%; pest or weed control at 62.5 g/ha [9]: 0%; pest or weed control at 250 g/ha [9]: 0%; pest or weed control at 15.625 g/ha [10]: 0%; pest or weed control at 62.5 g/ha [10]: 0%; pest or weed control at 250 g/ha [10]: 0%; pest or weed control at 15.625 g/ha [11]: 0%; pest or weed control at 62.5 g/ha [11]: 0%; pest or weed control at 250 g/ha [11]: 0%; pest or weed control at 15.625 g/ha [12]: 0%; pest or weed control at 62.5 g/ha [12]: 0%; pest or weed control at 250 g/ha [12]: 0% |
| CN1C[C@H](c2cccc(C(F)(F)F)c2)[C@@H](C(=O)Nc2c(O)cccc2F)C1=O (racemic) [Compound 1808] | 0 | 0 | 40 | 0 | 0 | 0 | 0 | 20 | 70 | 0 | 0 | 10 | 0 | 0 | 20 | 0 | 0 | 10 | 0 | 20 | pest or weed control at 250 g/ha [7]: 60%; plant injury at 15.625 g/ha (corn (Zea mays) [8]): 0%; plant injury at 62.5 g/ha (corn (Zea mays) [8]): 0%; plant injury at 250 g/ha (corn (Zea mays) [8]): 0%; pest or weed control at 15.625 g/ha [9]: 0%; pest or weed control at 62.5 g/ha [9]: 30%; pest or weed control at 250 g/ha [9]: 60%; pest or weed control at 15.625 g/ha [10]: 0%; pest or weed control at 62.5 g/ha [10]: 0%; pest or weed control at 250 g/ha [10]: 0%; pest or weed control at 15.625 g/ha [11]: 0%; pest or weed control at 62.5 g/ha [11]: 0%; pest or weed control at 250 g/ha [11]: 0%; pest or weed control at 15.625 g/ha [12]: 0%; pest or weed control at 62.5 g/ha [12]: 0%; pest or weed control at 250 g/ha [12]: 0% |
